Assay results taken from a melting point compilation (Tetko et al.; mined from patent text by program, amines drawn as free bases though some values may be those of a salt).

melting point | SMILES
229 to 230 °C | CCc1nc2c(N)nc3cc(OCc4cccc(Cl)n4)ccc3c2s1
265 to 266 °C | COc1ccc(NC(=O)/C=C/c2c(F)c(F)c(F)c(F)c2F)cc1[N+](=O)[O-]
132 to 133 °C | Cc1cc(Cl)cc(C#N)c1
118 to 120 °C | OCCOc1cn(-c2ccc(F)cc2)c2ccc(Cl)cc12
71 to 72 °C | CCCCCCCCCCN=C=S
142 to 143 °C | CCCC[C@@H](C)C[C@@H](CC(=O)OC(C)(C)C)C(=O)O
48 to 50 °C | CCCCCc1c(C(C)C)nc(C(C)C)c(CNCC)c1-c1ccc(F)cc1
72 to 75 °C | CCCCCCCCCCCCCCOc1ccc(CNc2cccc(CO)c2)cc1
138 to 139 °C | C=C[C@@H](C)[C@H]1CC[C@H]2[C@@H]3CCC4=CC(=O)CC[C@]4(C)[C@H]3CC[C@]12C
116 to 119 °C | CC1CC2C(C(O)CC3(C)C2CCC3(O)C(=O)COCc2ccccc2[N+](=O)[O-])C2(C)C=CC(=O)C=C12 (centres undefined)
255 to 256 °C | CN(c1cccc2cc(-c3ncc(CCc4n[nH]c(=O)o4)s3)[nH]c12)S(=O)(=O)c1cccs1
200 to 202 °C | O=c1[nH]c(=O)n(C2CC(O)C(COC3(c4ccccc4)c4ccccc4Oc4ccccc43)O2)cc1I (centres undefined)
167 to 169 °C | CCCc1nc2c(N)nc3cc(OCc4cccnc4)ccc3c2s1
92 to 95 °C | COC(=O)c1ccccc1-c1nc2cc(CBr)ccc2o1
145 °C | COc1ccc(Cl)cc1C(=O)NCCc1ccc(-c2ccc(OC(C)C(=O)O)cc2)cc1 (centres undefined)
162 °C | COC(=O)c1cc(O)c(N=Nc2ccccc2)c(OC(C)=O)c1
215 to 217 °C | CCCn1nc2c(N)nc3ccccc3c2c1CCNC(=O)C1CC1
117 to 120 °C | CC(C)(C)OC(=O)[C@H](Cc1ccccc1)NC(=O)CNC1Cc2ccccc2C1
96 to 97 °C | CC(C)(Cl)C(CCn1ccnc1[N+](=O)[O-])N=O (centres undefined)
61.6 to 61.8 °C | CCCCCNC(=O)NCCCCCOc1cccc2sc(NC(C)=O)nc12
150 to 151 °C | COc1ccc2c(c1)c1c(n2C)CCCC1=O
126 to 130 °C | O=C1N(CCN2CCC(c3noc4cc(F)ccc34)CC2)CCN1Cc1ccccc1
92 to 93 °C | COC(=O)C1C(C(OC(=S)Oc2ccc(C)cc2)C(C)C)C1(C)C (centres undefined)
130 to 132 °C | CC(N=Cc1ccc(O)cc1)C1CCCCC1 (single isomer, unassigned; (+))

melting point | SMILES
102 to 106 °C | CC(C)C[C@@H](C#N)NC(=O)[C@@H]1CCCC[C@@H]1NC(=O)c1cc2ccccc2n1CC(C)(C)O
110 to 111 °C | COC(=O)c1cc(O)c(O)c(OC)c1
98 to 100 °C | COP(=O)(CC(O)c1c(C)cc(C)cc1-c1ccc(F)c(C)c1)OC (centres undefined)
304 °C | Cc1cc2nc(O)c(-c3c(F)cc(F)cc3F)c(O)n2n1
164 to 165 °C | Cc1ccc(C2c3c(C)c(NC(=O)c4ccc5c(c4)OCO5)c(C)c(C)c3OC2(C)C)cc1 (centres undefined)
201 to 203 °C | O=C(O)COc1ccc(C(=O)c2ccccc2O)c(Cl)c1Cl
240 to 241 °C | CN1C(=O)C(C)(C)CCc2cc(C(=O)O)ccc21
110 to 112 °C | CC(O)(CCCc1ccc(Cl)cc1)c1ccc(OCc2ccc3ccccc3n2)cc1 (centres undefined)
114 °C | COc1ccc(OCc2ccc(=O)n(Cc3ccc(Cl)cc3)c2)cc1
172 to 174 °C | c1ccc2c(c1)CNc1cccnc1O2
106 °C | CC(Cl)(Cl)CC(O)(Cn1cncn1)c1ccc(Cl)cc1 (centres undefined)
114 to 117 °C | Cc1cc(-c2cccc(C(F)(F)F)c2)c2ncc(OCC(F)(F)F)nc2c1
229 to 231 °C | COC(=O)COc1ccc2c(c1)sc1cc3ccccc3c(-c3ccc(O)cc3)c12
136 °C | COc1cc(C(=O)c2nc(-c3ccc[nH]3)c3ccccn23)ccc1N
158 to 160 °C | O=C(Nc1ccccc1Oc1ccc(Cl)cc1)C1CCN(C(=O)c2ccccc2)CC1
97 to 98 °C | COc1ccc2c(c1)C(C(=O)N(Cc1ccc3c(c1)OCO3)c1ccc(C(C)C)cc1)CCC2 (centres undefined)
310 to 312 °C | O=C(O)c1cn2c(n1)COc1ccc([N+](=O)[O-])cc1-2
139 to 141 °C | CC(C)(C)OC(=O)NC1Cc2ccccc2N(c2ccccc2)C1 (centres undefined)
184 to 190 °C | Cn1c(=O)c2c(-c3nc(C4CC4)no3)ncn2c2ccccc21
170 °C | O=c1[nH]c(-c2ccccc2F)nc2c1CCCC2
128 to 130 °C | COc1ccccc1C1=C(NC(=O)Nc2ccc(N(C)C)cc2)SCc2ccccc21
121 to 122 °C | COc1c(C)c(C)c(OC)c(CO)c1C
86 to 88 °C | Cc1cc(C(=O)CBr)cn1S(=O)(=O)c1ccccc1
117 to 119 °C | COC(=O)c1c(OCc2ccccc2)ccc2c1CC[C@@H](NC1CCC1)[C@@H]2O (relative stereo)

melting point | SMILES
164 to 165 °C | N=C(Nc1ccc(CCCC(=O)Nc2ccccc2)cc1)N1CCCC1
101 °C | Cc1cc(Cl)c(O)c(CN(C)C2CCCCCCC2)c1
144 to 146 °C | CC1(C)NCC(=O)N1CC(N)=O
97.2 °C | [O-][N+](=CCCc1ccccc1)C1CCCCC1
157 to 158 °C | CCOc1nn(CCOc2nn(CC)cc2CC(=O)O)cc1C(=O)NCc1ccc(Cl)cc1Cl
157 °C | CCCn1c(-c2ccc(O)cc2)cnc1SC
161 to 162 °C | Brc1ccc2c(c1)C(c1ccccc1)OC(c1ccncc1)=N2 (centres undefined)
103 to 105 °C | Cc1nc2cccc(Cl)c2n1-c1ccccc1
75 to 77 °C | CN1CC(c2cccc(OCc3ccc4ccccc4n3)c2)OC1=O (centres undefined)
179 to 180 °C | CC(Sc1nc(N)cc(Cl)n1)c1cc2ccccc2cn1 (centres undefined)
97 to 99 °C | COC(=O)Cc1nc(-c2ccc(Cl)cc2)oc1Oc1cccc([N+](=O)[O-])c1
97 to 100 °C | CC(C)N(C=Nc1ncc(I)c(Cl)n1)C(C)C
151 to 153 °C | CC(C)(C)[Si](C)(C)OCCCC(=O)c1cc(-c2ccc(S(N)(=O)=O)cc2)n(C2CCCCC2)n1
104 to 106 °C | COc1cc(C)c(NC(=O)OC(C)(C)C)c(C)c1C
106 to 110 °C | CCOC(=O)C(c1c[nH]c2cccc(C(=O)OC)c12)C(C)[N+](=O)[O-] (centres undefined)
121 to 122 °C | Nc1cccc2c3c([nH]c12)C=C(NC(=O)c1ccc(F)cc1)C=CC3
157 to 158 °C | CCc1ccc(-c2c(Cl)c(CN3C(=O)CCC3=O)nc3sc4c(c23)CCNC4)cc1
101 to 108 °C | C[C@H]([C@](O)(Cn1cncn1)c1ccc(F)cc1F)S(=O)(=O)N1CCN(c2ncccn2)CC1
75 to 76 °C | CCCC1CCCNC1=O (centres undefined)
200 to 202 °C | O=C(O)C1Cc2c([nH]c3ccccc23)CN1C(=S)SCC=Cc1ccccc1 (centres undefined)
134 to 135 °C | CC(C)Oc1ccc(Cc2ccc(NC3=NCCN3)cc2)s1
241 to 243 °C | CC1CCc2nc3c(N)nc4ccccc4c3n2N1 (centres undefined)

SMILES | melting point
CCCC=Cc1ncn2c1CN(C)C(=O)c1cc(F)ccc1-2 | 150 to 151 °C
CCCC1NCCc2ccc(NC(=N)c3cccs3)cc21 (centres undefined) | 127 to 128 °C
Cn1cncc1C(c1cccs1)c1cccs1 | 78.5 to 80 °C
[N-]=[N+]=NCCc1c[nH]c(=O)[nH]c1=O | 230 to 235 °C
